{"source": "patent US7632801B2", "about": "“Identification and use of antiviral compounds that inhibit interaction of host cell proteins and viral proteins required for viral replication” (Mount Sinai School of Medicine of New York University, priority 1995, dated 2009)", "tested_on": "Influenza A/WSN/Virus", "assay_type": "cell-based"}
{"substance": "Ala Ser Gln Gly Thr Lys Arg Ser Tyr Glu Gln Met Glu Thr Asp Gly Glu Arg Gln (ASQGTKRSYEQMETDGERQ; listed as Homo sapiens) [NP-NLS oligopeptide, 19-amino acid NP-NLS oligopeptide corresponding to amino acids 2-20 of NP]", "values": [{"measurement": "inhibition of viral growth (hemagglutination titer)", "value": "thousand-fold"}]}
